In paper PMC11714206, “Massively Parallel Screening of Toll/Interleukin‐1 Receptor (TIR)‐Derived Peptides Reveals Multiple Toll‐Like Receptors (TLRs)‐Targeting Immunomodulatory Peptides” (Advanced Science, 2024):
Values belong to the substance of their own block, whether it stands above or below them.

Target: T1, MAL^TIR (Homo sapiens, UniProt P58753)
T1 construct: MAL (residues 79–221); 6xHis; made in house; host or cells: E. coli BL21 (DE3)
Assay: T‐Surf phage library (P8 and P3) selection against MAL^TIR, four rounds, NGS read counts
Assay type: binding
Details: for Population: 4th round of selection against MAL TIR, share of NGS reads; for P8_MAL Rank (after) / P8_MAL Rank (before): P8 library; for P3_MAL Rank (after) / P3_MAL Rank (before): P3 library
Summary of the method: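 Read counts come from NGS of phage pools after the fourth selection round, barcoded by 20-cycle PCR and filtered for quality ≥30. Each round: phage incubated 1 h at RT on immobilised TIR protein (5 µg mL^−1, BSA-blocked), washed, HCl-eluted and amplified in E. coli TG1.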

[1] = P8_MAL pool: P8 T-Surf phage library
[2] = P3_MAL pool: P3 T-Surf phage library
[3] = 4R selection against MAL, rank after grouping
[4] = 4R selection against MAL, rank before grouping
[5] = selection against MAL, rank by count after grouping
[6] = selection against MAL, rank by count before grouping
[7] = P3_MAL: rank by count after grouping
[8] = P3_MAL: rank by count before grouping
[9] = selection against MAL TIR, rank by count after grouping
[10] = selection against MAL TIR, rank by count before grouping
[11] = P8_MAL: rank by count after grouping
[12] = P8_MAL: rank by count before grouping
[13] = selection against MAL, rank after grouping
[14] = selection against MAL, rank before grouping

T1 sequence (P58753 79-221): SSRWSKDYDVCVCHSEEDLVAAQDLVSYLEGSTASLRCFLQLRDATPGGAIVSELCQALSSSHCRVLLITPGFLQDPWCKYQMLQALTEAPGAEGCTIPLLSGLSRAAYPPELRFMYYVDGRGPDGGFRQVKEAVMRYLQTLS

Population [1]: 0.0034%
Substance: LFFWESLKQLLRSVGR

Population [2]: 0.00376%
Substance: DLFLSKLSQHILKREK

P8_MAL Rank (after) [3]: 638
P8_MAL Rank (before) [4]: 1425
Substance: WLYERLVGLILRYTKV

P3_MAL Rank (after) [5]: 741
P3_MAL Rank (before) [6]: 2707
Substance: PNLRTKVLSYPMRTMT

Rank (after) [7]: 425
Rank (before) [8]: 1373
Substance: YAFTGHLPRYLVQRGG

P8_MAL Rank (after) [9]: 240
P8_MAL Rank (before) [10]: 2178
Substance: RSFVASLFQALANKGI

P8_MAL Rank (after) [5]: 699
P8_MAL Rank (before) [6]: 2283
Substance: RNNFIGHLYQAPNQSV

P3_MAL Rank (after) [9]: 232
P3_MAL Rank (before) [10]: 3160
Substance: SSFREGLWRLRGLSKK

P3_MAL Rank (after) [3]: 580
P3_MAL Rank (before) [4]: 2826
Substance: HHKGSYGEALAEDEER

Rank (after) [11]: 101
Rank (before) [12]: 1862
Substance: AFLYTFLIKLTHPPNF

Rank (after) [7]: 462
Rank (before) [8]: 1145
Substance: FLNFRGLYVRNYFLGP

P8_MAL Rank (after) [5]: 705
P8_MAL Rank (before) [6]: 1932
Substance: ALFWAQLKCVMGNPAM

P3_MAL Rank (after) [9]: 203
P3_MAL Rank (before) [10]: 733
Substance: YAFTGHLHRYLVQRSGI

P3_MAL Rank (after) [5]: 699
P3_MAL Rank (before) [6]: 2216
Substance: LKWGDPYFWSNCVMR

P3_MAL Rank (after) [3]: 587
P3_MAL Rank (before) [4]: 2929
Substance: MERVKAFHQRLKTALGH

Population [2]: 0.00488%
Substance: SSFREGLWRRLELSKK

Rank (after) [7]: 162
Rank (before) [8]: 1483
Substance: YAFKGNLHRYLVQRGV

P3_MAL Rank (after) [9]: 253
P3_MAL Rank (before) [10]: 754
Substance: YNFISHLYAALQRKHVET

P8_MAL Rank (after) [13]: 545
P8_MAL Rank (before) [14]: 2298
Substance: RNNLMDRLYQALDLLR

Population [2]: 0.00413%
Substance: MSHLYQGLKNRGI

P8_MAL Rank (after) [5]: 724
P8_MAL Rank (before) [6]: 2549
Substance: TFLGFLYIALVQAGFL

P8_MAL Rank (after) [9]: 239
P8_MAL Rank (before) [10]: 2637
Substance: TLLCHLYNALVQAGIH

P8_MAL Rank (after) [13]: 536
P8_MAL Rank (before) [14]: 1872
Substance: AFLYTFLNNLTHTTNI

Rank (after) [7]: 422
Rank (before) [8]: 2140
Substance: LQNQWRNALTAAANLSGW

P3_MAL Rank (after) [13]: 548
P3_MAL Rank (before) [14]: 2403
Substance: RGFLNQLRQHLHAKDH

Rank (after) [11]: 129
Rank (before) [12]: 1172
Substance: WFYERLVGLIMRDTKV

Rank (after) [7]: 95
Rank (before) [8]: 95
Substance: LGKPGVTDEAQETGSL

Rank (after) [7]: 168
Rank (before) [8]: 528
Substance: VGWFLHTLSQHILKREK

P8_MAL Rank (after) [9]: 229
P8_MAL Rank (before) [10]: 1264
Substance: WFYERLVSLILPVTKV

Rank (after) [11]: 117
Rank (before) [12]: 1222
Substance: WFYERLVSLIMRATKV

P8_MAL Rank (after) [5]: 704
P8_MAL Rank (before) [6]: 1698
Substance: AFFWEQLRTALGNPTM

P8_MAL Rank (after) [9]: 204
P8_MAL Rank (before) [10]: 2014
Substance: DTKLKKCESIAPELLL

P8_MAL Rank (after) [9]: 270
P8_MAL Rank (before) [10]: 2247
Substance: RNSVAYLFQALADKGI

Rank (after) [7]: 137
Rank (before) [8]: 398
Substance: YAFTGHLHRYLVQRA

P8_MAL Rank (after) [9]: 273
P8_MAL Rank (before) [10]: 2198
Substance: RNFVAYLFQALADKGV

Rank (after) [7]: 133
Rank (before) [8]: 726
Substance: YAFTAICIVIWCSVA

P8_MAL Rank (after) [3]: 624
P8_MAL Rank (before) [4]: 1103
Substance: LFYERLVSLILRHTRV

P8_MAL Rank (after) [13]: 561
P8_MAL Rank (before) [14]: 1292
Substance: WFYEPLVSVILPDTKV

P8_MAL Rank (after) [3]: 667
P8_MAL Rank (before) [4]: 2233
Substance: RNFVAHLFQALANKAI

P3_MAL Rank (after) [13]: 577
P3_MAL Rank (before) [14]: 2628
Substance: RSLRERLWRLLALSKK

P8_MAL Rank (after) [5]: 710
P8_MAL Rank (before) [6]: 1608
Substance: AFFWAQLNSVLGNTTM

P8_MAL Rank (after) [5]: 683
P8_MAL Rank (before) [6]: 1813
Substance: AFLYAFLKNLTHPTNF

P3_MAL Rank (after) [3]: 667
P3_MAL Rank (before) [4]: 2738
Substance: PNLRTKELIYLMRTKT

Rank (after) [11]: 138
Rank (before) [12]: 1605
Substance: AFFWAQLQSMLGNPTM

P3_MAL Rank (after) [9]: 287
P3_MAL Rank (before) [10]: 3276
Substance: NAFTGNLHRYLVQRGV

P8_MAL Rank (after) [3]: 609
P8_MAL Rank (before) [4]: 1751
Substance: AFFRDQLRTVLGKPTM

Rank (after) [11]: 478
Rank (before) [12]: 2556
Substance: TFLGHLSNGLVQAGIH

Rank (after) [7]: 403
Rank (before) [8]: 1763
Substance: GRYGELFMTETDVREG

Rank (after) [7]: 411
Rank (before) [8]: 2093
Substance: LVAHAISKKMKLFATI

Rank (after) [7]: 139
Rank (before) [8]: 2548
Substance: RLRKWKEALQQFHSWV

Population [1]: 0.00278%
Substance: WF*ERLVSLILRDTKV

P8_MAL Rank (after) [13]: 520
P8_MAL Rank (before) [14]: 1306
Substance: WFYNHLVSLFLRDTKV

Population [2]: 0.0124%
Substance: RVFLSHLRHHLQAKDH

Population [2]: 0.03%
Rank (after) [7]: 100
Rank (before) [8]: 100
Substance: GWFLNKLSQLILKKEK

P3_MAL Rank (after) [9]: 238
P3_MAL Rank (before) [10]: 1525
Substance: YQWRNALTAAANLRGW

Rank (after) [7]: 158
Rank (before) [8]: 727
Substance: YAFTGHLHRFWCSVA

Rank (after) [7]: 458
Rank (before) [8]: 3753
Substance: KNLFNELVRKNLRTFM

Rank (after) [7]: 459
Rank (before) [8]: 2149
Substance: LQNQWKLALTNVASLV

Rank (after) [11]: 476
Rank (before) [12]: 1140
Substance: WFYDRLVSLFLRDPKV

P8_MAL Rank (after) [9]: 236
P8_MAL Rank (before) [10]: 1293
Substance: WFYEPLVSLILRDTKL

Rank (after) [7]: 441
Rank (before) [8]: 2614
Substance: RNVMSHLYQGLQNRGI

P3_MAL Rank (after) [5]: 746
P3_MAL Rank (before) [6]: 1787
Substance: AFFWEQLRPALKERLP

P3_MAL Rank (after) [9]: 255
P3_MAL Rank (before) [10]: 3406
Substance: NQWRNELNAAANLSGW

P8_MAL Rank (after) [9]: 198
P8_MAL Rank (before) [10]: 802
Substance: AFFLGTAAYRAGQTDD

P3_MAL Rank (after) [3]: 670
P3_MAL Rank (before) [4]: 1376
Substance: YAFTGHLHGSLLQRRV

P3_MAL Rank (after) [3]: 672
P3_MAL Rank (before) [4]: 3487
Substance: KWFWDTLTYAPNLSPH

P3_MAL Rank (after) [5]: 698
P3_MAL Rank (before) [6]: 1420
Substance: YAFTGHLHRYLMPRGV

P8_MAL Rank (after) [13]: 490
P8_MAL Rank (before) [14]: 2649
Substance: TYLGNLNNALVQAGIH

Rank (after) [11]: 161
Rank (before) [12]: 852
Substance: AFLYTFLINLTHPTIH

Rank (after) [7]: 472
Rank (before) [8]: 2884
Substance: HQAFWKRPWAKLKPPT

P8_MAL Rank (after) [13]: 562
P8_MAL Rank (before) [14]: 1912
Substance: AFLNTLLKNLTRPPNF

P3_MAL Rank (after) [3]: 650
P3_MAL Rank (before) [4]: 2550
Substance: RLQEWRETLCQGHSRV

P8_MAL Rank (after) [3]: 672
P8_MAL Rank (before) [4]: 2302
Substance: RFYEAQLILVLRNTKM

P3_MAL Rank (after) [5]: 677
P3_MAL Rank (before) [6]: 1176
Substance: FLNFRAWMCVTIFWA

P8_MAL Rank (after) [3]: 579
P8_MAL Rank (before) [4]: 2250
Substance: RNYVAYLFQALANTGI

Population [2]: 0.00376%
Rank (after) [7]: 111
Rank (before) [8]: 178
Substance: KERLHQWKLALTQAANLSGW

P3_MAL Rank (after) [9]: 270
P3_MAL Rank (before) [10]: 2674
Substance: PNLRTKVLSYLMRTTT

P3_MAL Rank (after) [5]: 721
P3_MAL Rank (before) [6]: 3468
Substance: KHCWDRLCYMVNDSSR

P3_MAL Rank (after) [5]: 750
P3_MAL Rank (before) [6]: 1498
Substance: YLNSGYPWRYDRLRFA

Rank (after) [11]: 146
Rank (before) [12]: 1715
Substance: AFFWPQLKSVLGNPTK

P8_MAL Rank (after) [9]: 208
P8_MAL Rank (before) [10]: 2257
Substance: RKFEAYLFQALANKGI

P8_MAL Rank (after) [3]: 608
P8_MAL Rank (before) [4]: 2112
Substance: LFFWESLKQPLRSEGR

P8_MAL Rank (after) [5]: 690
P8_MAL Rank (before) [6]: 1128
Substance: WFYVRLVILALRDNNM
